Measured values from patent US20260234125A1, “CYCLIC AMINE DERIVATIVE, AND COMPOSITION AND USE THEREOF” (SHANGHAI JINGXIN BIOMEDICAL CO., LTD., priority 2023, published 2026).

What was measured:
[1] = tested on: Salmonella typhimurium TA1537; assay: Salmonella typhimurium reverse mutation test, TA1537; type: cell-based; set-up: key: + indicates a positive mutagenic result; − indicates a negative mutagenic result
Procedure: (§1) The revived strains or a single colony from the master plate were inoculated into the broth, and cultured in a thermostat gas bath vibrator at 100 to 120 rpm and 37±1° C. for 10 to 16 hours, marked and stored for later use. The bottom agar medium (containing an appropriate amount of agar, Vogel-Bonner buffer, 20% glucose solution and 20% magnesium sulfate solution) was poured into a six-well plate, approximately […] into each well, and allowed to cool and solidify naturally, marked each well and stored for later use.
(§2) Three wells were set up in each group for parallel experiments. The top agar medium was sterilized under high pressure and kept warm at about 65° C. In each test tube, 0.1 mL of negative control (DMSO) or positive control or test sample, 0.1 mL of bacterial solution suspension, 0.5 mL of phosphate buffer (0.2M PBS) (−S9) or 0.5 mL of S9 mixed solution (+S9) and 2.5 mL top culture medium were added, after vortex mixing, and then quickly and evenly spread on the culture dish which was already spreaded with the bottom agar medium. After natural cooling and solidification, the culture dish was inverted and placed in a 37° C. incubator for 48 to 72 hours. After culturing for 48 to 72 hours, the culture dish was taken out, and the number of revertant colonies in each well was counted, the growth background was observed under a microscope to determine whether there was antibacterial or bactericidal activity, and the experimental results were recorded.

hERG potassium channel = molecular target: T1, hERG potassium channel (Homo sapiens, UniProt Q12809); assay: hERG whole-cell patch clamp experiment; type: cell-based; details: HEK-293 cells that express hERG, HEK-293-hERG cell, read-out: inhibition rate
T1 construct: expressed in transfected cells; host or cells: HEK-293-hERG cells
T1 sequence (Q12809 whole entry): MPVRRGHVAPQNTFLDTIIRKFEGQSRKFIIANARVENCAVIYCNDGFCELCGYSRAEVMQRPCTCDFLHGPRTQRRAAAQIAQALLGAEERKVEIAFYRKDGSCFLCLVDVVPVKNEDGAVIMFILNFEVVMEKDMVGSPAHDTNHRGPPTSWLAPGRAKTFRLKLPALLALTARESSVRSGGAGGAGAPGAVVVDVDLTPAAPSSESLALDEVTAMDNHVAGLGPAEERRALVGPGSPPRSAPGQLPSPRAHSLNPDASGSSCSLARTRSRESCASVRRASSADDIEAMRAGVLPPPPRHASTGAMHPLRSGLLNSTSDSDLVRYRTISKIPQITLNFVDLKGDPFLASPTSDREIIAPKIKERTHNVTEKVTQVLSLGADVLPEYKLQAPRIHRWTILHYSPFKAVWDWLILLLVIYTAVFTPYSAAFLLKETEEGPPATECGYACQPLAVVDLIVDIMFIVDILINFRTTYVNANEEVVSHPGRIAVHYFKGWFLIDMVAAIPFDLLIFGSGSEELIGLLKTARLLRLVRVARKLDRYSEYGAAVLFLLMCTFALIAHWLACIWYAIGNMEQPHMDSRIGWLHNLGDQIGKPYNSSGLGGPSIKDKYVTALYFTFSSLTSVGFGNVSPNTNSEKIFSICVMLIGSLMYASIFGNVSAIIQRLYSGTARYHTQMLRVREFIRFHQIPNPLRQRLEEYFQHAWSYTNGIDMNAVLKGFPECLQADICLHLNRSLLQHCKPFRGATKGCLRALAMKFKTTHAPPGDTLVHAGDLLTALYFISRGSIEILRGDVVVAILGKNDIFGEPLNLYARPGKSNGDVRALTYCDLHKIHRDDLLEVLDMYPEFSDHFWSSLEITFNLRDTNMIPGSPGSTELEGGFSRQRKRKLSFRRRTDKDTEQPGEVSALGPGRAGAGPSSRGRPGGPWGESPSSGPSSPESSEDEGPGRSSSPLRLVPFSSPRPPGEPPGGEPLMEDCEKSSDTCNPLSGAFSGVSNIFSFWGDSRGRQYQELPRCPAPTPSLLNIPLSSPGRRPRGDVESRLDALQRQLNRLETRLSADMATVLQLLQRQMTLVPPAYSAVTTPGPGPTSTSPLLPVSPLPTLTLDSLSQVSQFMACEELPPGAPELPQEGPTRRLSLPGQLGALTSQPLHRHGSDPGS
Procedure: • 1. Experimental purpose: The purpose of this test is to test the inhibition rate of the compounds on the hERG potassium channel • 2. Experimental methods: The hERG current was recorded using the whole-cell patch clamp technique. A suspension of HEK-293-hERG cell was added to a small culture dish and placed on an inverted microscope stage. After the cells adhered to the dish, extracellular fluid was perfused at a flow rate of 1-2 mL/minute. The glass microelectrode was pulled in two steps by a microelectrode puller, after the electrode was filled with internal fluid, its water resistance was 2-5 MΩ. After establishing the whole-cell recording mode, the holding potential was maintained at −80 mV. A depolarizing voltage to +60 mV was applied for 850 ms, and then followed by repolarization to −50 mV for 1275 ms to elicit the hERG tail current. This set of pulse programs was repeated every 15 seconds throughout the experiment. After the current stabilized, the test compound was administered via continuous extracellular perfusion from low concentration to high concentration. Starting from a low concentration, perfusion was continued until the drug effect was stable, and then the next concentration was perfused.

[2] = tested on: Salmonella typhimurium TA102; assay: Salmonella typhimurium reverse mutation test, TA102; type: cell-based; set-up: key: + indicates a positive mutagenic result; − indicates a negative mutagenic result
Procedure: as §1, §2

[3] = tested on: Salmonella typhimurium TA98; assay: Salmonella typhimurium reverse mutation test, TA98; type: cell-based; set-up: key: + indicates a positive mutagenic result; − indicates a negative mutagenic result
Procedure: as §1, §2

[4] = Bioavailability determination in cynomolgus monkeys; type: in vivo; details: cynomolgus monkey, plasma, 1 mg/kg intravenous and 7.5 mg/kg oral gavage, read-out: bioavailability F
Procedure: • 1. Experimental purpose: The purpose of this test is to test the bioavailability of the compound in cynomolgus monkeys • 2. Experimental methods: The cynomolgus monkeys were housed with a standard light cycle (12 hours light/12 hours dark), at a room temperature of 18-26° C. and a relative humidity of 40-70%, with free access to water and normal diet. Five days prior to the study, the cynomolgus monkeys were randomly assigned to an intravenous administration group and an oral administration group (n=2/group) on their body weight for the study. The administration volume was calculated according to the body weight of the animals on the day of administration, and the administration volume was 2 mL/kg, the single intravenous administration was performed at a dose of 1 mg/kg, and the solvent was 5% DMSO, 5% Solutol, and 90% Saline. Blood was collected from the forelimb vein or other suitable veins at 0.083 h, 0.25 h, 0.5 h, 1 h, 2 h, 4 h, 6 h, 8 h, 12 h, 24 h, 48 h and 72 h after administration. The administration volume was calculated according to the weight of the animals on the day of administration, and the administration volume was 5 mL/kg, the single oral gavage administration was performed at a dose of 7.5 mg/kg, and the solvent was 1% HEC and 0.25% Tween 80 in Water. […]

[5] = tested on: Salmonella typhimurium TA1535; assay: Salmonella typhimurium reverse mutation test, TA1535; type: cell-based; set-up: key: + indicates a positive mutagenic result; − indicates a negative mutagenic result
Procedure: as §1, §2

O=C(O)[C@@H](Cc1cccc(CN(Cc2cccc(C[C@H](C(=O)O)[C@H]3CCNC3)c2)Cc2cccc(C[C@H](C(=O)O)[C@H]3CCNC3)c2)c1)[C@H]1CCNC1 [Comparative Example 1, reference compound]
24.6%: inhibition at 1 µM (hERG potassium channel)
+: mutagenicity ([3]; TA98, +S9, 556 μg/dish) | mutagenicity ([3]; TA98, +S9, 1667 μg/dish) | mutagenicity ([3]; TA98, +S9, 5000 μg/dish) | mutagenicity ([3]; TA98, −S9, 185 μg/dish) | mutagenicity ([3]; TA98, −S9, 556 μg/dish) | mutagenicity ([3]; TA98, −S9, 1667 μg/dish) | mutagenicity ([3]; TA98, −S9, 5000 μg/dish)
−: mutagenicity ([1]; TA1537, +S9, 62 μg/dish) | mutagenicity ([1]; TA1537, +S9, 185 μg/dish) | mutagenicity ([1]; TA1537, +S9, 556 μg/dish) | mutagenicity ([1]; TA1537, +S9, 1667 μg/dish) | mutagenicity ([1]; TA1537, +S9, 5000 μg/dish) | mutagenicity ([1]; TA1537, −S9, 62 μg/dish) | mutagenicity ([1]; TA1537, −S9, 185 μg/dish) | mutagenicity ([1]; TA1537, −S9, 556 μg/dish) | mutagenicity ([1]; TA1537, −S9, 1667 μg/dish) | mutagenicity ([1]; TA1537, −S9, 5000 μg/dish) | mutagenicity ([2]; TA102, +S9, 62 μg/dish) | mutagenicity ([2]; TA102, +S9, 185 μg/dish) | mutagenicity ([2]; TA102, +S9, 556 μg/dish) | mutagenicity ([2]; TA102, +S9, 1667 μg/dish) | mutagenicity ([2]; TA102, +S9, 5000 μg/dish) | mutagenicity ([2]; TA102, −S9, 62 μg/dish) | mutagenicity ([2]; TA102, −S9, 185 μg/dish) | mutagenicity ([2]; TA102, −S9, 556 μg/dish) | mutagenicity ([2]; TA102, −S9, 1667 μg/dish) | mutagenicity ([2]; TA102, −S9, 5000 μg/dish) | mutagenicity ([3]; TA98, +S9, 62 μg/dish) | mutagenicity ([3]; TA98, +S9, 185 μg/dish) | mutagenicity ([3]; TA98, −S9, 62 μg/dish) | mutagenicity ([5]; TA1535, +S9, 62 μg/dish) | mutagenicity ([5]; TA1535, +S9, 185 μg/dish) | mutagenicity ([5]; TA1535, +S9, 556 μg/dish) | mutagenicity ([5]; TA1535, +S9, 1667 μg/dish) | mutagenicity ([5]; TA1535, +S9, 5000 μg/dish) | mutagenicity ([5]; TA1535, −S9, 62 μg/dish) | mutagenicity ([5]; TA1535, −S9, 185 μg/dish) | mutagenicity ([5]; TA1535, −S9, 556 μg/dish) | mutagenicity ([5]; TA1535, −S9, 1667 μg/dish) | mutagenicity ([5]; TA1535, −S9, 5000 μg/dish)
7.37%: inhibition at 0.3 µM (hERG potassium channel)
29.2%: inhibition at 3 µM (hERG potassium channel)
10.2%: bioavailability [4]

O=C(O)[C@@H](Cc1cccc(CN(Cc2cccc(C[C@H](C(=O)O)[C@H]3CCNC3)c2)C(=O)c2cccc(C[C@H](C(=O)O)[C@H]3CCNC3)c2)c1)[C@H]1CCNC1 [Example 5]
3.67%: inhibition at 3 µM (hERG potassium channel)
3.47%: inhibition at 1 µM (hERG potassium channel)
16.8%: bioavailability [4]
-0.06%: inhibition at 0.3 µM (hERG potassium channel)
−: mutagenicity ([1]; TA1537, +S9, 62 μg/dish) | mutagenicity ([1]; TA1537, +S9, 185 μg/dish) | mutagenicity ([1]; TA1537, +S9, 556 μg/dish) | mutagenicity ([1]; TA1537, +S9, 1667 μg/dish) | mutagenicity ([1]; TA1537, +S9, 5000 μg/dish) | mutagenicity ([1]; TA1537, −S9, 62 μg/dish) | mutagenicity ([1]; TA1537, −S9, 185 μg/dish) | mutagenicity ([1]; TA1537, −S9, 556 μg/dish) | mutagenicity ([1]; TA1537, −S9, 1667 μg/dish) | mutagenicity ([1]; TA1537, −S9, 5000 μg/dish) | mutagenicity ([2]; TA102, +S9, 62 μg/dish) | mutagenicity ([2]; TA102, +S9, 185 μg/dish) | mutagenicity ([2]; TA102, +S9, 556 μg/dish) | mutagenicity ([2]; TA102, +S9, 1667 μg/dish) | mutagenicity ([2]; TA102, +S9, 5000 μg/dish) | mutagenicity ([2]; TA102, −S9, 62 μg/dish) | mutagenicity ([2]; TA102, −S9, 185 μg/dish) | mutagenicity ([2]; TA102, −S9, 556 μg/dish) | mutagenicity ([2]; TA102, −S9, 1667 μg/dish) | mutagenicity ([2]; TA102, −S9, 5000 μg/dish) | mutagenicity ([3]; TA98, +S9, 62 μg/dish) | mutagenicity ([3]; TA98, +S9, 185 μg/dish) | mutagenicity ([3]; TA98, +S9, 556 μg/dish) | mutagenicity ([3]; TA98, +S9, 1667 μg/dish) | mutagenicity ([3]; TA98, +S9, 5000 μg/dish) | mutagenicity ([3]; TA98, −S9, 62 μg/dish) | mutagenicity ([3]; TA98, −S9, 185 μg/dish) | mutagenicity ([3]; TA98, −S9, 556 μg/dish) | mutagenicity ([3]; TA98, −S9, 1667 μg/dish) | mutagenicity ([3]; TA98, −S9, 5000 μg/dish) | mutagenicity ([5]; TA1535, +S9, 62 μg/dish) | mutagenicity ([5]; TA1535, +S9, 185 μg/dish) | mutagenicity ([5]; TA1535, +S9, 556 μg/dish) | mutagenicity ([5]; TA1535, +S9, 1667 μg/dish) | mutagenicity ([5]; TA1535, +S9, 5000 μg/dish) | mutagenicity ([5]; TA1535, −S9, 62 μg/dish) | mutagenicity ([5]; TA1535, −S9, 185 μg/dish) | mutagenicity ([5]; TA1535, −S9, 556 μg/dish) | mutagenicity ([5]; TA1535, −S9, 1667 μg/dish) | mutagenicity ([5]; TA1535, −S9, 5000 μg/dish)
